The values that follow come from patent US11878012B2, “Compositions and methods for treating traumatic brain injury” (Board of Regents, the University of Texas System, priority 2020, dated 2024).

The test system of data set [1] is DGGCs. Kind of data set: Ca2+ imaging with calcium green-1 in DGGCs of hippocampal slices, whole-cell mode. It counts as cell-based, mice. The note with it: for peak calcium green-1 fluorescence increase: M1R stimulation. As for the experimental part:
(§1) Hippocampal Slice Preparation. […] Hippocampal slices were maintained in oxygenated ACSF at 30° C. for 60 min and experiments were performed at 25° C.
Ca2^+ Imaging. Concurrent with patch-clamp electrophysiology, neurons in slices were also imaged (Nikon FN-1, 40× water-immersion objective) via the fluorescent Ca^2+-reporter dye calcium green-1. As a hexapotassium salt, the dye (10 μm) was added to the intracellular patch pipette solution and neurons were patched under whole-cell clamp, as described above. Cells were loaded for 10 min before image acquisition. Fluorescence intensity was obtained using a SOLA Light Engine illumination source (Lumencor) with an output of 3.5 W through a 3-mm-diameter liquid light guide through a Nikon ET-GFP filter. Nikon Elements software was used for image acquisition through a QIClick CCD camera (QImaging). Images were acquired with an exposure time of 200 ms every 2 min using a single-channel, 12-bit rate and no binning. The shutter was closed between each acquisition. For each cell, the corrected total cell fluorescence was measured as the integrated density intensity—(cell area*mean background emission). Ca^2+ signals were measured as the change in fluorescence relative to the baseline fluorescence (ΔF/F0). Averages of four images were thresholded at 10%, masked using a highly averaged image of the cell, and encoded with a pseudocolor look-up table. Group cell fluorescence data were averaged in comparison with normalized intensity at each time point.

In data set [2] the test system is DGGCs. Kind of data set: Patch-clamp / current-clamp recordings of DGGCs in hippocampal slices (action potentials, AHP, IM amplitude). In kind it is cell-based, mice. Here is the method:
as §1

For data set [3], the system named is other TRPC channels. The settings on record: description; cited from earlier work.
Data set [4] concerns TRPC4/5 channels. The settings on record: description from literature; cited from earlier work.
Data set [5] has as its system DGGCs. Kind of data set: GCaMP6f brain slice Ca2+ imaging of DGGCs after sham or CCI-TBI. It counts as cell-based, mice. The settings on record: for Ca2+ influx events per neuron: 0.3 mM ACh 5 min; for duration of Ca2+ influx / peak amplitude of Ca2+ influx: ACh. An excerpt: Neuromodulation of TRPC generates robust Ca2+ influx and facilitates neuronal hyperexcitability. […] To assess the post-injury effect of TRPC channel upregulation on neurons, we used Ca2+ imaging in brain slice to measure excitability as a product of intracellular Ca2+ gating by TRPC1/4/5 channels (FIG. 4). […] Transgenic mice with the GCaMP6f transgene were used to detect changes in cellular Ca2+-activated fluorescence. We hypothesized that DGGC activity increases due to muscarinic stimulation with ACh or direct activation of TRPC4-containing channels with EA. Sensitivity was tested by bath perfusion of ACh or EA to the slice for 5 minutes during Ca2+ imaging to quantify peak amplitude of GCaMP6f fluorescence per cell, duration of Ca2+ influx, and the field-frequency of events (FIG. 4).
Brain slice Ca2+ imaging. Transverse slices (300 μm) of hippocampus were cut with a vibratome (Thermo Scientific Microm HM650V) from Cre-CamK2+/GCamp6f+/− mice. […] Hippocampal slices were maintained in oxygenated ACSF at 30° C. for 60 min, and experiments performed at 28° C. […] Neurons were visually identified with a Nikon FN-1 microscope equipped with a 40× water-immersion objective and infrared differential interference contrast. GCaMP6f fluorescence was obtained using a SOLA Light Engine Illumination source (Lumecor) with an output of 3.5W through a 3 mm diameter liquid light guide through a Nikon ET-GFP filter. Nikon Elements software was used for image acquisition through a QIClick CCD camera (Qlmaging) with a Uniblitz Model VMM-D 1 shutter driver. Baseline time series of the DG granule layer were acquired in the presence of bath solution perfusion for 2 min. […] Images were acquired in time series with an exposure time of 200 ms at 2-10 fps at 12-bit rate and no binning. Time-series image stacks were processed with ImageJ. Images were background subtracted using the mean of the 5% lowest pixel values. Ca2+ signal events were quantified for each cell as change in fluorescence divided by the baseline fluorescence (ΔF/FO) after background subtraction. ROI signals were detrended before quantification to account for drift due to gradual photobleaching of the background.

Data set [6] deals with seizure susceptibility. Kind of data set: Single subconvulsant PTZ challenge 7 days after CCI-TBI. In kind it is in vivo, mice. The settings on record: PTZ 50 mg/kg single dose 7 days after TBI, n=14. An excerpt: TBI facilitates TRPC-dependent seizure susceptibility.
Controlled cortical impact traumatic brain injury. […] Apnea episodes lasted between 10-60 sec after impact.
Seizure susceptibility assays. Pentylenetetrazol kindling model.

Data set [7] has as its system seizure susceptibility. Put plainly: PTZ kindling after sham or CCI-TBI. As for the experimental part:
The fact that only a portion of TBI cases become susceptible to epileptic seizures is a yet unanswered phenomenon in both preclinical and clinical studies. Therefore, we investigated seizure susceptibility within the CCI-TBI model to gain a greater understanding as to the etiology of hyperexcitability spread occurring post-injury. […] In our seizure susceptibility paradigm, 1 or 7 days after experimental procedure, mice were challenged with a subconvulsant dose of PTZ (35 mg/kg s.c.) once-daily to elicit kindling epileptogenesis (FIG. 6A). The progression of motor seizure behavior was observed and timed by direct observation linked to EEG activity (FIG. 6B).
We wished to understand if the TRPC channel upregulation after TBI could be targeted to impede epileptogenic activity. […] Seizure susceptibility was standardized according to the latency to forelimb clonus lasting greater than 5 sec.
Controlled cortical impact traumatic brain injury. The controlled cortical impact (CCI) traumatic brain injury (TBI) model was applied, with a closed skull impact approach. The CCI model causes TBI, but the skull remains intact with minimal hematoma. This type of brain injury model most closely simulates the TBI experienced during blunt-head injuries from vehicular accidents or falls. Mice were anesthetized with isoflurane (3% induction, 1% maintenance) in 100% O2. Body temperature of 37° C. was maintained using a temperature-controlled heated surgical table. The skull was fixed with ear-bars into a stereotaxic frame. A small midline incision was made on the scalp using aseptic surgical techniques. Impact was delivered by cylindrical probe of 5 mm diameter with an Impact One neurotrauma impactor (Leica Biosystems). A calibrated impact was delivered at 4.5 m/sec to a depth of 1 mm and 0.5 sec dwell time to the right parietal cortex (−1.8 mm ML, +2.0 mm AP, −1.0 mm DV). […] The scalp was then sutured closed and mice were placed in a warming recirculation unit and monitored until fully awake and moving freely. […] For consistency, the left hemisphere of both sham and TBI mice is designated as “contralateral” brain, and the right hemisphere is referred to as “ipsilateral”, despite no impact injury occurring in sham mice.
In vivo electroencephalograms. To determine seizure frequency and record brain susceptibility to seizures, mice were implanted with electroencephalogram (EEG) electrodes 24 hr after sham or TBI. A three-channel tethered EEG system was used. The electrode pedestal (P1 Technologies) was secured to the skull with three anchored dental screws and connected to a preamplifier with gain of 25. The three leads were inserted over the left frontal cortex, left parietal cortex, and depth electrode lead into the hippocampus. The Stellate Harmonie acquisition hardware and software were used to collect coincident video and EEG activity. EEGs were inspected for presence of epileptiform spikes and seizures.
Seizure susceptibility assays. Pentylenetetrazol kindling model. Seizure susceptibility was tested with the GABAA receptor antagonist pentylenetetrazol (PTZ) for progression of motor seizure activity. Mice were injected with PTZ (35 mg/kg, s.c.) once per day and scored for motor behavioral seizures.

In data set [8] the test system is TRPC1/4/5 channels. The note with it: Rubaiy et al., 2017; cited from earlier work.
[9] abbreviates: TRPC4/5 channels blocked, control or plus 77-LH-28-1 3 μM.
Where [10] appears, read: IP3 receptor blockade, xestospongin C 10 μm.
The mark [11] stands for this setting: PTZ daily from 1 day post-TBI, TBI.
[12] abbreviates: PTZ daily from 1 day post-procedure, sham.
Setting [13] is: PTZ daily from 7 days after TBI, TBI.
Where [14] appears, read: PTZ daily from 7 days after procedure, sham.

For the molecule `CCCCC1CCN(CCCN2C(=O)CCc3ccccc32)CC1` [77-LH-28-1], in data set [1] (77-LH-28-1 3 μm), the “peak calcium green-1 fluorescence increase” value was 2.91±0.41 fold. The “peak calcium green-1 fluorescence increase” value in data set [1] (77-LH-28-1 10 μm) is listed as 4.27±0.95 fold. Moreover, the “enhancement of IM amplitude” value in data set [2] (77-LH-28-1 3 μm with TRPC4/5 channels blocked) was 1.83 ±0.14 fold. For the same molecule, the “action potential firing rate” value in data set [2] (77-LH-28-1 3 μm, no TRPC4/5 blocker) was “significantly increased”. The “enhancement of IM amplitude” value in data set [2] (M1R stimulation in the absence of TRPC4/5 channel blockers) was 1.92±0.10 fold. In data set [2] (M084 10 μm + 77-LH-28-1 3 μm, n=8 cells), the action potential threshold is given as −46.1±1.5 mV. In data set [2] (setting [9]), the AHP amplitude worked out at 13.6 ± 0.9 mV, the AHP area was 264.8 ± 21.5 ms* mV and the AHP decay was 17.1 ± 0.8 ms.
On to `Cc1cc(N2CCCCC2)nc2ccccc12` [ML204, 4-Methyl-2-(1-piperidinyl)quinolone], for which the “blockage of other TRPC channels” value in data set [3] was “no appreciable blockage”. The “effect on TRPC4/5 channels” value in data set [4] was “selectively inhibit”. Moreover, in data set [1] (M084 and ML204 together, 10 μm), the “maximum calcium-green 1 emission on muscarinic stimulation” value worked out at 1.61±0.21 fold.
In the case of `CC(=O)OCC[N+](C)(C)C` [ACh, acetylcholine], the “Ca2+ influx events per neuron” value is recorded as 2.6±0.2 events/neuron in data set [5] (contralateral TBI), 4.3±0.2 events/neuron in data set [5] (ipsilateral TBI) and 1.8±0.3 events/neuron in data set [5] (sham control tissue). In addition, the “duration of Ca2+ influx” value is 6.12 ± 0.19 s in data set [5] (contralateral DGGCs) and 8.51 ± 0.20 s in data set [5] (ipsilateral DGGCs). Further, the “peak amplitude of Ca2+ influx” value in data set [5] (contralateral DGGCs) was 1.70±0.12 ΔF/F; in data set [5] (ipsilateral TBI DGGCs), 4.31±0.58 ΔF/F.
On to `C1CCC[C@H]2CCCN3CC[C@@H](CCCCCC[C@@H]4CCCN5CC[C@@H](CC1)O[C@@H]45)O[C@@H]23` [xestospongin C], for which the “rises in [Ca2+]i on mAChR stimulation” value in data set [1] (setting [10]) is “substantial rises”. Moreover, the “action potential firing frequency on mAChR stimulation” value in data set [2] (setting [10]) is given as “increased action potential firing frequency”. Further, the “M1R-mediated enhancement of IM” value in data set [2] (xestospongin C 10 μm in the pipette) amounted to 1.67±0.14 fold.
As for `C1CCc2nnnn2CC1` [PTZ, pentylenetetrazol], in data set [6], the “mice acquiring myoclonic jerks” value is listed as 100%. In addition, the “mice with forelimb clonus seizures” value in data set [6] was found to be 86%. Besides, the “latency to myoclonic jerks” value in data set [7] (PTZ 35 mg/kg s.c. daily from 1 day post-TBI, TBI) amounted to 4.4 ± 0.6 days; in data set [7] (PTZ 35 mg/kg s.c. daily from 1 day post-procedure, sham) it was 9.5 ± 0.6 days; in data set [7] (setting [13]), 3.6 ± 0.7 days; in data set [7] (setting [14]) it was 9.8 ± 0.4 days. For the same molecule, the “latency to forelimb clonus” value is 5.6 ± 0.7 days in data set [7] (setting [11]), 11.3 ± 0.7 days in data set [7] (setting [12]), 4.3 ± 0.8 days in data set [7] (setting [13]) and 12.0 ± 0.6 days in data set [7] (setting [14]). The “latency to tonic-clonic seizure” value in data set [7] (setting [11]) is 7.9 ± 0.7 days; in data set [7] (setting [12]), 12.5 ± 0.8 days; in data set [7] (setting [13]), 5.6 ± 1.2 days; in data set [7] (setting [14]) it was 13.1 ± 0.6 days. Further, the “mice with lethal seizures on second tonic-clonic occurrence” value in data set [7] (PTZ kindling from 1 day post-TBI, TBI group) is reported as “five out of eight”.
As for `Cn1c(=O)n(CCCO)c(=O)c2c1nc(Oc1cccc(OC(F)(F)F)c1)n2Cc1ccc(Cl)cc1` [Pico145], in data set [8], the “potency on TRPC1/4/5 channels” value is “picomolar potency”.
For the molecule `CCCCCCCCCCCCCCCCCCOCC(COP(=O)([O-])OCC[N+](C)(C)C)OC` (stereo not drawn) [edelfosine], the “maximum dye emission over that before agonist” value in data set [1] (slices preincubated with edelfosine 10 μm, then 77-LH-28-1) is 1.15±0.08 fold.
